Measured values as given in patent US20260232767A1, “INTERLEUKIN-23 RECEPTOR ANTAGONIST PEPTIDES FOR USE IN THE TREATMENT OF PSORIASIS” (Janssen Pharmaceutica NV, priority 2023, published 2026).

System: subjects with moderate-to-severe plaque psoriasis
Assay: Safety, adverse events, Example 2 through Week 56
Assay type: in vivo, human
Settings: through Week 56; for Subjects with 1 or more Serious adverse events: Tonsillar hypertrophy / Subjects with 1 or more Serious adverse events: Uterine leiomyoma / Subjects with 1 or more Serious adverse events: Ventricular dysfunction / Subjects with 1 or more treatment-emergent adverse events leading to discontinuation of study agent / Subjects with 1 or more Adverse events / Subjects with 1 or more Adverse events: Alanine aminotransferase increased / Subjects with 1 or more Adverse events: Arthralgia / Subjects with 1 or more Adverse events: Aspartate aminotransferase increased / Subjects with 1 or more Adverse events: Bronchitis / Subjects with 1 or more Adverse events: COVID-19 / Subjects with 1 or more Adverse events: Cough / Subjects with 1 or more Adverse events: Diarrhea / Subjects with 1 or more Adverse events: Headache / Subjects with 1 or more Adverse events: Influenza / Subjects with 1 or more Adverse events: Nasopharyngitis / Subjects with 1 or more Adverse events: Upper respiratory tract infection / Subjects with 1 or more Adverse events: Urinary tract infection / Subjects with 1 or more Serious adverse events / Subjects with 1 or more Serious adverse events: COVID-19 / Subjects with 1 or more Serious adverse events: Cerebrovascular accident / Subjects with 1 or more Serious adverse events: Coronary artery disease / Subjects with 1 or more Serious adverse events: Diverticulitis / Subjects with 1 or more Serious adverse events: Foot deformity / Subjects with 1 or more Serious adverse events: Infected cyst / Subjects with 1 or more Serious adverse events: Intervertebral disc protrusion / Subjects with 1 or more Serious adverse events: Ligament injury / Subjects with 1 or more Serious adverse events: Non-cardiac chest pain / Subjects with 1 or more Serious adverse events: Suicide attempt: number of subjects
Source text: The LTE safety analysis was based on randomized participants in Example who entered the present long-term extension study and received at least one dose of study intervention (including a partial dose) during the study period.

[1] = Placebo → 100 mg QD after crossover

SMILES: CC(=O)NCCCC[C@@H]1NC(=O)[C@H](Cc2c[nH]c3c(C)cccc23)NC(=O)[C@H]([C@@H](C)O)NC(=O)[C@H](CC(N)=O)NC(=O)[C@@H](NC(C)=O)C(C)(C)SSC(C)(C)[C@@H](C(=O)N[C@@H](Cc2ccc(OCCN)cc2)C(=O)N[C@@H](Cc2ccc3ccccc3c2)C(=O)NC2(C(=O)N[C@@H](CCC(=O)O)C(=O)N[C@@H](CC(N)=O)C(=O)N[C@@H](Cc3cccnc3)C(=O)N(C)CC(N)=O)CCOCC2)NC1=O [IL-23 receptor antagonist peptide, Ac-[Pen]*-N-T-[W(7-Me)]-[Lys(Ac)]-[Pen]*-Phe[4-(2-aminoethoxy)]-[2-Nal]-[THP]-E-N-[3-Pal]-Sarc-NH2 (*[Pen]-[Pen]* formdisulfidebond)]
- Subjects with 1 or more Serious adverse events: Tonsillar hypertrophy (50 mg QD): 0
- Subjects with 1 or more Serious adverse events: Uterine leiomyoma (50 mg QD): 0
- Subjects with 1 or more Serious adverse events: Ventricular dysfunction (50 mg QD): 0
- Subjects with 1 or more treatment-emergent adverse events leading to discontinuation of study agent (50 mg QD): 2
- Subjects with 1 or more Adverse events (100 mg BID): 32
- Subjects with 1 or more Adverse events: Alanine aminotransferase increased (100 mg BID): 4
- Subjects with 1 or more Adverse events: Arthralgia (100 mg BID): 2
- Subjects with 1 or more Adverse events: Aspartate aminotransferase increased (100 mg BID): 3
- Subjects with 1 or more Adverse events: Bronchitis (100 mg BID): 0
- Subjects with 1 or more Adverse events: COVID-19 (100 mg BID): 7
- Subjects with 1 or more Adverse events: Cough (100 mg BID): 2
- Subjects with 1 or more Adverse events: Diarrhea (100 mg BID): 1
- Subjects with 1 or more Adverse events: Headache (100 mg BID): 1
- Subjects with 1 or more Adverse events: Influenza (100 mg BID): 1
- Subjects with 1 or more Adverse events: Nasopharyngitis (100 mg BID): 5
- Subjects with 1 or more Adverse events: Upper respiratory tract infection (100 mg BID): 5
- Subjects with 1 or more Adverse events: Urinary tract infection (100 mg BID): 2
- Subjects with 1 or more Serious adverse events (100 mg BID): 1
- Subjects with 1 or more Serious adverse events: COVID-19 (100 mg BID): 0
- Subjects with 1 or more Serious adverse events: Cerebrovascular accident (100 mg BID): 0
- Subjects with 1 or more Serious adverse events: Coronary artery disease (100 mg BID): 0
- Subjects with 1 or more Serious adverse events: Diverticulitis (100 mg BID): 0
- Subjects with 1 or more Serious adverse events: Foot deformity (100 mg BID): 0
- Subjects with 1 or more Serious adverse events: Infected cyst (100 mg BID): 0
- Subjects with 1 or more Serious adverse events: Intervertebral disc protrusion (100 mg BID): 0
- Subjects with 1 or more Serious adverse events: Ligament injury (100 mg BID): 0
- Subjects with 1 or more Serious adverse events: Non-cardiac chest pain (100 mg BID): 0
- Subjects with 1 or more Serious adverse events: Suicide attempt (100 mg BID): 0
- Subjects with 1 or more Serious adverse events: Tonsillar hypertrophy (100 mg BID): 0
- Subjects with 1 or more Serious adverse events: Uterine leiomyoma (100 mg BID): 1
- Subjects with 1 or more Serious adverse events: Ventricular dysfunction (100 mg BID): 0
- Subjects with 1 or more treatment-emergent adverse events leading to discontinuation of study agent (100 mg BID): 1
- Subjects with 1 or more Adverse events (100 mg QD): 31
- Subjects with 1 or more Adverse events: Alanine aminotransferase increased (100 mg QD): 0
- Subjects with 1 or more Adverse events: Arthralgia (100 mg QD): 3
- Subjects with 1 or more Adverse events: Aspartate aminotransferase increased (100 mg QD): 0
- Subjects with 1 or more Adverse events: Bronchitis (100 mg QD): 0
- Subjects with 1 or more Adverse events: COVID-19 (100 mg QD): 5
- Subjects with 1 or more Adverse events: Cough (100 mg QD): 3
- Subjects with 1 or more Adverse events: Diarrhea (100 mg QD): 1
- Subjects with 1 or more Adverse events: Headache (100 mg QD): 5
- Subjects with 1 or more Adverse events: Influenza (100 mg QD): 1
- Subjects with 1 or more Adverse events: Nasopharyngitis (100 mg QD): 11
- Subjects with 1 or more Adverse events: Upper respiratory tract infection (100 mg QD): 2
- Subjects with 1 or more Adverse events: Urinary tract infection (100 mg QD): 0
- Subjects with 1 or more Serious adverse events (100 mg QD): 3
- Subjects with 1 or more Serious adverse events: COVID-19 (100 mg QD): 1
- Subjects with 1 or more Serious adverse events: Cerebrovascular accident (100 mg QD): 0
- Subjects with 1 or more Serious adverse events: Coronary artery disease (100 mg QD): 0
- Subjects with 1 or more Serious adverse events: Diverticulitis (100 mg QD): 1
- Subjects with 1 or more Serious adverse events: Foot deformity (100 mg QD): 0
- Subjects with 1 or more Serious adverse events: Infected cyst (100 mg QD): 0
- Subjects with 1 or more Serious adverse events: Intervertebral disc protrusion (100 mg QD): 1
- Subjects with 1 or more Serious adverse events: Ligament injury (100 mg QD): 0
- Subjects with 1 or more Serious adverse events: Non-cardiac chest pain (100 mg QD): 0
- Subjects with 1 or more Serious adverse events: Suicide attempt (100 mg QD): 1
- Subjects with 1 or more Serious adverse events: Tonsillar hypertrophy (100 mg QD): 0
- Subjects with 1 or more Serious adverse events: Uterine leiomyoma (100 mg QD): 0
- Subjects with 1 or more Serious adverse events: Ventricular dysfunction (100 mg QD): 0
- Subjects with 1 or more treatment-emergent adverse events leading to discontinuation of study agent (100 mg QD): 2
- Subjects with 1 or more Adverse events (Combined): 174
- Subjects with 1 or more Adverse events: Alanine aminotransferase increased (Combined): 9
- Subjects with 1 or more Adverse events: Arthralgia (Combined): 8
- Subjects with 1 or more Adverse events: Aspartate aminotransferase increased (Combined): 7
- Subjects with 1 or more Adverse events: Bronchitis (Combined): 9
- Subjects with 1 or more Adverse events: COVID-19 (Combined): 35
- Subjects with 1 or more Adverse events: Cough (Combined): 8
- Subjects with 1 or more Adverse events: Diarrhea (Combined): 11
- Subjects with 1 or more Adverse events: Headache (Combined): 12
- Subjects with 1 or more Adverse events: Influenza (Combined): 7
- Subjects with 1 or more Adverse events: Nasopharyngitis (Combined): 49
- Subjects with 1 or more Adverse events: Upper respiratory tract infection (Combined): 24
- Subjects with 1 or more Adverse events: Urinary tract infection (Combined): 8
- Subjects with 1 or more Serious adverse events (Combined): 11
- Subjects with 1 or more Serious adverse events: COVID-19 (Combined): 1
- Subjects with 1 or more Serious adverse events: Cerebrovascular accident (Combined): 1
- Subjects with 1 or more Serious adverse events: Coronary artery disease (Combined): 1
- Subjects with 1 or more Serious adverse events: Diverticulitis (Combined): 1
- Subjects with 1 or more Serious adverse events: Foot deformity (Combined): 1
- Subjects with 1 or more Serious adverse events: Infected cyst (Combined): 1
- Subjects with 1 or more Serious adverse events: Intervertebral disc protrusion (Combined): 1
- Subjects with 1 or more Serious adverse events: Ligament injury (Combined): 1
- Subjects with 1 or more Serious adverse events: Non-cardiac chest pain (Combined): 1
- Subjects with 1 or more Serious adverse events: Suicide attempt (Combined): 1
- Subjects with 1 or more Serious adverse events: Tonsillar hypertrophy (Combined): 1
- Subjects with 1 or more Serious adverse events: Uterine leiomyoma (Combined): 1
- Subjects with 1 or more Serious adverse events: Ventricular dysfunction (Combined): 1
- Subjects with 1 or more treatment-emergent adverse events leading to discontinuation of study agent (Combined): 10
- Subjects with 1 or more Adverse events [1]: 23
- Subjects with 1 or more Adverse events: Alanine aminotransferase increased [1]: 2
- Subjects with 1 or more Adverse events: Arthralgia [1]: 1
- Subjects with 1 or more Adverse events: Aspartate aminotransferase increased [1]: 1
- Subjects with 1 or more Adverse events: Bronchitis [1]: 1
- Subjects with 1 or more Adverse events: COVID-19 [1]: 2
- Subjects with 1 or more Adverse events: Cough [1]: 0
- Subjects with 1 or more Adverse events: Diarrhea [1]: 1
- Subjects with 1 or more Adverse events: Headache [1]: 0
- Subjects with 1 or more Adverse events: Influenza [1]: 1
- Subjects with 1 or more Adverse events: Nasopharyngitis [1]: 9
- Subjects with 1 or more Adverse events: Upper respiratory tract infection [1]: 4
- Subjects with 1 or more Adverse events: Urinary tract infection [1]: 2
- Subjects with 1 or more Serious adverse events [1]: 1
- Subjects with 1 or more Serious adverse events: COVID-19 [1]: 0
- Subjects with 1 or more Serious adverse events: Cerebrovascular accident [1]: 1
- Subjects with 1 or more Serious adverse events: Coronary artery disease [1]: 0
- Subjects with 1 or more Serious adverse events: Diverticulitis [1]: 0
- Subjects with 1 or more Serious adverse events: Foot deformity [1]: 0
- Subjects with 1 or more Serious adverse events: Infected cyst [1]: 0
- Subjects with 1 or more Serious adverse events: Intervertebral disc protrusion [1]: 0
- Subjects with 1 or more Serious adverse events: Ligament injury [1]: 0
- Subjects with 1 or more Serious adverse events: Non-cardiac chest pain [1]: 0
- Subjects with 1 or more Serious adverse events: Suicide attempt [1]: 0
- Subjects with 1 or more Serious adverse events: Tonsillar hypertrophy [1]: 0
- Subjects with 1 or more Serious adverse events: Uterine leiomyoma [1]: 0
- Subjects with 1 or more Serious adverse events: Ventricular dysfunction [1]: 0
- Subjects with 1 or more treatment-emergent adverse events leading to discontinuation of study agent [1]: 0
- Subjects with Abdominal distension: 0
- Subjects with Abscess limb: 0
- Subjects with Constipation: 0
- Subjects with Gastrointestinal disorders (system organ class): (16.7%)
- Subjects with Headache: (11.6%)
